Measured values as given in US5110976A, “Insecticidal composition comprising more than one active ingredient” (priority 1985, dated 1992).

Assays:
[1] = system: house fly; assay: Topical LD50 on house fly (mg/kg); assay type: in vivo; details: Musca domestica, approximate, topically
Description: (§1) The said selectivity index of the enantiomer-pair Ia amounts to 50/0.45=111.
(§2) In addition to the synergistic effect the composition of the present invention has a number of further advantages too and for this reason it is an outstanding product. It is very important that the compositions of the present invention are less toxical towards mammals than the hitherto known compositions of similar efficiency. […] The said selectivity index of Ia amounts to 50/0.45=111.

[2] = system: Acanthoscelides obtectus; assay: Impregnated filter paper disc contact test, mortality (Table 1); assay type: in vivo, bean weevil (Acanthoscelides obtectus), imago; details: for mortality at 20 µg/disc / mortality at 70 µg/disc / mortality at 220 µg/disc / mortality at 670 µg/disc / mortality at 2000 µg/disc / mortality at 6000 µg/disc: Acanthoscelides obtectus, 24 hours, Abbot corrected; for mortality at 20 µg/disc: 0.02 mg/disc; for mortality at 70 µg/disc: 0.07 mg/disc; for mortality at 220 µg/disc: 0.22 mg/disc; for mortality at 670 µg/disc: 0.67 mg/disc; for mortality at 2000 µg/disc: 2.0 mg/disc; for mortality at 6000 µg/disc: 6.0 mg/disc
Protocol: (§3) The stereoisomers are dissolved in a 1:2 mixture of mineral oil and acetone and filter paper discs (Whatman No. 1., diameter 9 cm) are impregnated with the corresponding dosage of the solution of the active ingredient. The acetone is allowed to evaporate and the insects are examined on filter paper discs placed into Petri-dishes. Three parallels are used for each dose and 15 animals are placed in each Petri-dish. Mortality rate is determined after 24 hours. The corrected mortality % data are calculated by means of the Abbot formula.

[3] = system: tribolium confusum; assay: as above; assay type: in vivo, flour-beetle (tribolium confusum), imago; details: for mortality at 20 µg/disc / mortality at 70 µg/disc / mortality at 220 µg/disc / mortality at 670 µg/disc / mortality at 2000 µg/disc / mortality at 6000 µg/disc: Tribolium confusum, 24 hours, Abbot corrected; for mortality at 20 µg/disc: 0.02 mg/disc; for mortality at 70 µg/disc: 0.07 mg/disc; for mortality at 220 µg/disc: 0.22 mg/disc; for mortality at 670 µg/disc: 0.67 mg/disc; for mortality at 2000 µg/disc: 2.0 mg/disc; for mortality at 6000 µg/disc: 6.0 mg/disc
Protocol: as §3

[4] = Acute toxicity on rats and selectivity index; details: rat, in vivo; for LD50: po, rats, p.o., read-out: approximate LD50 toxicity; for selectivity ratio: quotient of approximate LD50 values on rats and house fly
Description: as §1, §2

[5] = system: Lucilia sericata; assay: Impregnated filter paper disc contact test, mortality (Table 1); assay type: in vivo, sheep maggot fly (Lucilia sericata), imago; details: for mortality at 20 µg/disc / mortality at 70 µg/disc / mortality at 220 µg/disc / mortality at 670 µg/disc / mortality at 2000 µg/disc / mortality at 6000 µg/disc: Lucilia sericata, 24 hours, Abbot corrected; for mortality at 20 µg/disc: 0.02 mg/disc; for mortality at 70 µg/disc: 0.07 mg/disc; for mortality at 220 µg/disc: 0.22 mg/disc; for mortality at 670 µg/disc: 0.67 mg/disc; for mortality at 2000 µg/disc: 2.0 mg/disc; for mortality at 6000 µg/disc: 6.0 mg/disc
Protocol: as §3

[6] = system: T. confusum; assay: Filter paper contact test with piperonyl butoxide (Table 7); assay type: in vivo, confused flour-beetle (T. confusum), imagos; details: for mortality at 25 µg/disc / mortality at 50 µg/disc / mortality at 100 µg/disc / mortality at 200 µg/disc / mortality at 400 µg/disc: Tribolium confusum, 24 h, PBO, where added, 0.5 mg/disc; for mortality at 25 µg/disc: 0.025 mg/disc; for mortality at 50 µg/disc: 0.05 mg/disc; for mortality at 100 µg/disc: 0.1 mg/disc; for mortality at 200 µg/disc: 0.2 mg/disc; for mortality at 400 µg/disc: 0.4 mg/disc
Protocol: as §3
T. confusum (confused flour-beetle) imagos are treated according to Example 20 and percental mortality is determined after 24 hours. The dose of piperonyl butoxide (referred to furtheron as "[…]") amounts to 0.5 mg/disc The results are disclosed in Table 7.

[7] = system: A. matricariae; assay: Residual contact test on adults (Table 4); assay type: in vivo, Aphidinus matricariae, adult females
Protocol: Adults of A. matricariae are exposed to residues of the active ingredients freshly applied on glass plates forming cages then the survivors are counted.
Treatments: test products(s) and control treated with water.
Replicates: at least 3. Plot size (net) 1 cage.
Parasites of known age 24 hours are used.
The products are applied at 5-1 ppm concentration, to each of the glass plates.
10 females of A. matricariae are introduced into each cage and supplied with honey as food. The number of females surviving exposure is determined after 1.5 and 24 hours, in independent runs. Total number of survivors is calculated for each cage.

[8] = system: Colorado potato beetle; assay: Plot field test on Colorado potato beetle (Table 24); assay type: in vivo, adults; details: 10 g active ingredients/ha
Protocol: The treatments are performed on a 25 m^2 plot strongly infected with Colorado potato beetle. 10 plants per plot are specially marked on which the Colorado potato beetles were counted previously. (During assessment of the number of pests only adults of the second Summer generation are taken into consideration, because at the point of time of the test the ratio of larvae of stages L3 and L4 is negligible). Treatment is accomplished on 25 M^2 plots at a dose of 10 g of active ingredients/ha with aqueous suspensions of the formulations according to Example 37 and three parallels are used. The test is evaluated by counting the leave insects on the marked plants. The average values of three parallel tests are disclosed in Table 24.

[9] = system: T. confusum; assay: Contact test with piperonyl butoxide (Table 17); assay type: in vivo, flour-beetle (T. confusum), imagos; details: Tribolium confusum, 24 h, PBO, where added, 0.5 mg/disc
Protocol: The active ingredient is dissolved in a 1:2 mixture of oil and acetone; filter paper discs (Whatman No. 1, diameter 9 cm) are impregnated with the solutions of the corresponding stereoisomers and enantiomer-pairs, respectively. The acetone is allowed to evaporate, whereupon the insects are exposed to filter papers discs placed in Petri-dishes. Three parallels are used on each dose and 15 insects are placed into each Petri-dish. The percental mortality is determined after 24 hours. The corrected percent mortality is calculated by means of the Abbot Formula.
Imagos of flour-beetle (T. confusum) are treated in an analogous manner to Example 41. As synergist piperonyl butoxide is used in a dose of 0.5 mg/disc.

[10] = system: Myzus persicae; assay: 5 EC formulations on aphid-infected bean plants (Table 22); assay type: in vivo, green peach aphids (Myzus persicae)
Protocol: 15 bean plants infected with green peach aphids (Myzus persicae) at 6 days' age are cultivated in each pot. At 12 days' age the strongly and uniformly infected plants are selected and sprayed to run-off with emulsions freshly prepared from the formulation according to Example 42. Treatments are carried out with three doses (active ingredient 2.5, 5 and 10 ppm) and four parallels are used (one pot per parallel). The second, fourth and eighth day after treatment the aphids are swept down from the plants to a white paper with a fine brush and the live insects are counted.

[11] = system: Leptinotarsa decemlineara larvae; assay: Paralysis of larvae on sprayed tomato plants (Table 23); assay type: in vivo, L3 stage larvae; details: 6 hours
Protocol: Tomato plants pre-cultivated in pots are sprayed with a suspension of the active ingredient formed with a mixture of acetone and water. The treated plants are placed into isolators and infected with L3 stage Leptinotarsa decemlineara larvae. The percental ratio of paralyzed larvae which fall down from the plants is determined after 6 hours.

Compound: CC1(C)[C@H](C=C(Cl)Cl)[C@H]1C(=O)O[C@H](C#N)c1cccc(Oc2ccccc2)c1 (relative stereo) [Ib]
- LD50 [1]: ~0.64 mg/kg
- mortality at 20 µg/disc [2]: 32%
- mortality at 70 µg/disc [2]: 55%
- mortality at 220 µg/disc [2]: 87%
- mortality at 670 µg/disc [2]: 100%
- mortality at 2000 µg/disc [2]: 100%
- mortality at 6000 µg/disc [2]: 100%
- comparative activity ([2]; Ib versus Ia): more active than enantiomer-pair Ia
- comparative activity ([3]; Ib versus Ia): more active than enantiomer-pair Ia
- mortality at 20 µg/disc [3]: 14%
- mortality at 70 µg/disc [3]: 73%
- mortality at 220 µg/disc [3]: 100%
- mortality at 670 µg/disc [3]: 100%
- mortality at 2000 µg/disc [3]: 100%
- mortality at 6000 µg/disc [3]: 100%
- LD50 [4]: ~5000 mg/kg
- selectivity ratio [4]: 7800
- comparative activity ([5]; Ib versus Ia): more active than enantiomer-pair Ia
- mortality at 20 µg/disc [5]: 22%
- mortality at 70 µg/disc [5]: 55%
- mortality at 220 µg/disc [5]: 70%
- mortality at 670 µg/disc [5]: 75%
- mortality at 2000 µg/disc [5]: 100%
- mortality at 6000 µg/disc [5]: 100%
- synergizability with piperonyl butoxide ([6]; Ib versus Ia): can be synergized at a higher level than isomer pair Ia
- mortality at 25 µg/disc [6]: 0%
- mortality at 50 µg/disc [6]: 10%
- mortality at 100 µg/disc [6]: 51%
- mortality at 200 µg/disc [6]: 85%
- mortality at 400 µg/disc [6]: 100%
- Mortality % ([7]; 1 ppm, 1h): 0%
- Mortality % ([7]; 1 ppm, 5h): 75%
- Mortality % ([7]; 1 ppm, 24h): 88%
- Mortality % ([7]; 5 ppm, 1h): 100%

Compound: CC1(C)[C@H](C(=O)O[C@H](C#N)c2cccc(Oc3ccccc3)c2)[C@@H]1C=C(Cl)Cl (relative stereo) [Ia]
- LD50 [1]: ~0.45 mg/kg
- mortality at 20 µg/disc [2]: 10%
- mortality at 70 µg/disc [2]: 37%
- mortality at 220 µg/disc [2]: 63%
- mortality at 670 µg/disc [2]: 100%
- mortality at 2000 µg/disc [2]: 100%
- mortality at 6000 µg/disc [2]: 100%
- mortality at 20 µg/disc [3]: 0%
- mortality at 70 µg/disc [3]: 18%
- mortality at 220 µg/disc [3]: 51%
- mortality at 670 µg/disc [3]: 100%
- mortality at 2000 µg/disc [3]: 100%
- mortality at 6000 µg/disc [3]: 100%
- LD50 [4]: ~50 mg/kg
- selectivity ratio [4]: 111
- Average number of live insects/10 plants ([8]; 0 days after treatment (control 211)): 171
- Average number of live insects/10 plants ([8]; 1 day after treatment (control 206)): 11
- Average number of live insects/10 plants ([8]; 3 days after treatment (control 179)): 9
- Average number of live insects/10 plants ([8]; 9 days after treatment (control 183)): 25
- mortality at 25 µg/disc ([9]; 0.025 mg/disc): 0%
- mortality at 50 µg/disc ([9]; 0.05 mg/disc): 0%
- mortality at 100 µg/disc ([9]; 0.1 mg/disc): 12%
- mortality at 200 µg/disc ([9]; 0.2 mg/disc): 53%
- mortality at 400 µg/disc ([9]; 0.4 mg/disc): 96%
- mortality at 20 µg/disc [5]: 0%
- mortality at 70 µg/disc [5]: 30%
- mortality at 220 µg/disc [5]: 29%
- mortality at 670 µg/disc [5]: 57%
- mortality at 2000 µg/disc [5]: 60%
- mortality at 6000 µg/disc [5]: 65%
- Average number of aphids per pot ([10]; 2.5 ppm, 2 days after treatment (control 1850)): 44
- Average number of aphids per pot ([10]; 2.5 ppm, 4 days after treatment (control 2780)): 83
- Average number of aphids per pot ([10]; 2.5 ppm, 8 days after treatment (control 4120)): 245
- Average number of aphids per pot ([10]; 5.0 ppm, 2 days after treatment (control 1850)): 22
- Average number of aphids per pot ([10]; 5.0 ppm, 4 days after treatment (control 2780)): 29
- Average number of aphids per pot ([10]; 5.0 ppm, 8 days after treatment (control 4120)): 90
- Average number of aphids per pot ([10]; 10.0 ppm, 2 days after treatment (control 1850)): 8
- Average number of aphids per pot ([10]; 10.0 ppm, 4 days after treatment (control 2780)): 17
- Average number of aphids per pot ([10]; 10.0 ppm, 8 days after treatment (control 4120)): 30
- % ratio of paralyzed larvae ([11]; 8 ppm): 18%
- % ratio of paralyzed larvae ([11]; 40 ppm): 46%
- % ratio of paralyzed larvae ([11]; 200 ppm): 100%
- % ratio of paralyzed larvae ([11]; 1000 ppm): 100%
- mortality at 25 µg/disc [6]: 0%
- mortality at 50 µg/disc [6]: 0%
- mortality at 100 µg/disc [6]: 12%
- mortality at 200 µg/disc [6]: 53%
- mortality at 400 µg/disc [6]: 96%
- Mortality % ([7]; 1 ppm, 1h): 100%
- Mortality % ([7]; 1 ppm, 5h): 100%
- Mortality % ([7]; 1 ppm, 24h): 96%
- Mortality % ([7]; 5 ppm, 1h): 100%
